Target: T1, Nb-9-LOX (Nicotiana benthamiana, UniProt R4S2V6)
T1 construct: protein starts MSLEKI, ends NSVSI (from primers)
T1 sequence (R4S2V6 1-862): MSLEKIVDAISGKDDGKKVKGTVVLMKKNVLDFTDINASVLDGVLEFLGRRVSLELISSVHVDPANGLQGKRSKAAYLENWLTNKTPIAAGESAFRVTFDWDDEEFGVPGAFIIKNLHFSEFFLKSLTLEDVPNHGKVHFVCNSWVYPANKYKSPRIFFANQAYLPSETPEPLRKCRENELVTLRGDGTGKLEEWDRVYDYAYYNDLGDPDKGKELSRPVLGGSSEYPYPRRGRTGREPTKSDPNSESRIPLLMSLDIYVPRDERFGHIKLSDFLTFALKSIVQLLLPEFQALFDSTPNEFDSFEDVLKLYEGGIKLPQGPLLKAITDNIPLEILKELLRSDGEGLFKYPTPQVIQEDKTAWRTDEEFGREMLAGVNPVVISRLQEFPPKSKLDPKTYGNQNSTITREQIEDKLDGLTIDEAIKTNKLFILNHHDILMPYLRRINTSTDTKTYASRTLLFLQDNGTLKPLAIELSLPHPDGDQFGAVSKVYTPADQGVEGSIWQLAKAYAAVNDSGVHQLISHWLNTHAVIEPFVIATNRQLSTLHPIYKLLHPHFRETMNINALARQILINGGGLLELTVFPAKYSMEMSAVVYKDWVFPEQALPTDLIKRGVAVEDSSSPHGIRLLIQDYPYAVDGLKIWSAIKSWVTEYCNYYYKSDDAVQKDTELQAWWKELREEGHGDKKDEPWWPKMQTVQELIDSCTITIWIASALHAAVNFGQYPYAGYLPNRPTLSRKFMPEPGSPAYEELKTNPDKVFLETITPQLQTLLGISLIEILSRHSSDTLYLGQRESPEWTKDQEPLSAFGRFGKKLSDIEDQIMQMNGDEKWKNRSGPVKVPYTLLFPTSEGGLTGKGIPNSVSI
Test: spectrophotometry at […] nm, conjugated diene formation, crude yeast extract
Format: biochemical
Details: 50 mM sodium phosphate; pH 6.0 presumed for the Km (used after the optimum was found); room temperature; O2

- Km: 3.9 µM
SMILES: CCCCC/C=C\C/C=C\CCCCCCCC(=O)O [linoleic acid]

Reference: PMC3079629, “Cloning and characterization of a 9-lipoxygenase gene induced by pathogen attack from Nicotiana benthamiana for biotechnological application” (BMC Biotechnology, 2011)
